Like-named read-outs stand apart in the source and are kept apart here.
Legend:
[1] = format: physicochemical; details: for CAC (critical aggregation concentration) / Colloid radius ±SD: DLS; for CAC (critical aggregation concentration): 50 mM KPi pH 7.0, 1% DMSO
3CL-Pro = 3CL-Pro (Severe acute respiratory syndrome coronavirus 2, UniProt P0DTD1); experiment: 3CL-Pro kinetics inhibition assay in the presence of 0.05% Tween-20; format: biochemical, SARS-CoV-2; details: 0.05% Tween-20 versus literature IC50
MDH = biological target: T1, MDH (Sus scrofa, UniProt P00346); experiment: Colloid centrifugation followed by MDH inhibition of supernatant; format: biochemical, porcine; details: 14,000 rpm, 1 h, 4 °C; supernatant tested
T1 sequence (P00346 25-338): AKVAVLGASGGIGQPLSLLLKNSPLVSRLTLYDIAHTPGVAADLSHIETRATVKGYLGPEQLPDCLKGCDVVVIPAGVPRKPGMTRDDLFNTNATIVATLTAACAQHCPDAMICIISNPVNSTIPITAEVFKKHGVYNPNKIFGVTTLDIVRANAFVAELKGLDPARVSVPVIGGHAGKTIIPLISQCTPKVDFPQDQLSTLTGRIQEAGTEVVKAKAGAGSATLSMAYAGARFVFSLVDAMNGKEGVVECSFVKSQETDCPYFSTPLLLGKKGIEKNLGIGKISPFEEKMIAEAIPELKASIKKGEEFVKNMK

[2] = biological target: T2, MDH (malate dehydrogenase, from porcine heart) (Sus scrofa, UniProt P00346); experiment: MDH inhibition counter screen with or without 0.01% Triton X-100; format: biochemical; details: for Effect of 0.01% Triton X-100 detergent on MDH inhibition/activity: addition of 0.01% Triton X-100; for Hill slope of MDH inhibition: in the absence of detergent
T2 sequence (P00346 25-338): T1 sequence (P00346 25-338)

AmpC β-lactamase = AmpC β-lactamase (Escherichia coli, UniProt P00811); experiment: AmpC β-lactamase counter screen with or without 0.01% Triton X-100; format: biochemical
Sequence of AmpC β-lactamase (P00811 20-377): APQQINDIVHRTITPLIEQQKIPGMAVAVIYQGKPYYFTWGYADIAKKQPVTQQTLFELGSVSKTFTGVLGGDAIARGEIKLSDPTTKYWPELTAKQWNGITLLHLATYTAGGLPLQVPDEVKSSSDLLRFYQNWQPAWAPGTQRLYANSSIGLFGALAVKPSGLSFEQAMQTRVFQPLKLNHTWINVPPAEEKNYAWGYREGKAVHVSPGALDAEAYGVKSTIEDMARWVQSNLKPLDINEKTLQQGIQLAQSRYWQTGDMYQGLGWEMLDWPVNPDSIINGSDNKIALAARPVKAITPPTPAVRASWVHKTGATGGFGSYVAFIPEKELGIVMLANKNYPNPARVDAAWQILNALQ

O=C(O)c1ccc(N2C(=O)/C(=C\c3ccc(-c4ccc([N+](=O)[O-])cc4)o3)C=C2c2ccccc2)cc1 [4E1RCat]
CAC (critical aggregation concentration) ([1]; literature hits): 6.6 µM | Colloid radius ±SD ([1]; literature hits): 102 ± 8 nm | Reduction of 3CL-Pro potency in presence of detergent versus literature value (3CL-Pro): fivefold

COc1ccc(-c2ccc3cc(C(=O)O)ccc3c2)cc1C12CC3CC(CC(C3)C1)C2 [Adapalene]
Colloid radius ±SD ([1]; drugs from repurposing library): 422 ± 65 nm

Cc1c(C)c2c(c(C)c1O)CCC(C)(CCCC(C)CCCC(C)CCCC(C)C)O2 (stereo not drawn) [Alpha-Tochopherol]
Colloid radius ±SD ([1]; drugs from repurposing library): 466 ± 5.6 nm

O=C1c2c(O)cccc2Cc2cccc(O)c21 [Anthralin]
Colloid radius ±SD ([1]; literature hits): 1014 ± 53 nm

O=C1CCc2ccc(OCCCCN3CCN(c4cccc(Cl)c4Cl)CC3)cc2N1 [Aripiprazole]
Colloid radius ±SD ([1]; literature hits): 222 ± 5. nm

Cc1c(-c2ccc(O)cc2)n(Cc2ccc(OCCN3CCCCCC3)cc2)c2ccc(O)cc12 [Bazedoxifene]
Colloid radius ±SD ([1]; drugs from repurposing library): 2822 ± 814 nm

c1ccc(-c2ccc(C(c3ccccc3)n3ccnc3)cc2)cc1 (stereo not drawn) [Bifonazole]
Colloid radius ±SD ([1]; drugs from repurposing library): 184 ± 80 nm

CC(C)(C)[C@H]1CC[C@H](CC2=C(O)C(=O)c3ccccc3C2=O)CC1 [Buparvaquone]
Colloid radius ±SD ([1]; drugs from repurposing library): 186 ± 15 nm

C[C@@H](NCCCc1cccc(C(F)(F)F)c1)c1cccc2ccccc12 [Cinacalcet]
Colloid radius ±SD ([1]; literature hits): 77 ± 4 nm

Oc1c(I)cc(Cl)c2cccnc12 [Clioquinol]
Colloid radius ±SD ([1]; literature hits): 1818 ± 177 nm

Clc1ccccc1C(c1ccccc1)(c1ccccc1)n1ccnc1 [Clotrimazole]
Colloid radius ±SD ([1]; literature hits): 283 ± 15 nm

COc1c2ccc(-c3ccccc3)oc-2cc(=O)c1C [Dracorhodin]
Colloid radius ±SD ([1]; drugs from repurposing library): 101 ± 22 nm

Cc1cc(O)c2c(c1)C(=O)c1cc(O)cc(O)c1C2=O [Emodin]
Colloid radius ±SD ([1]; literature hits): 58 ± 17 nm

Cc1cc(-c2ccc(/N=N/c3ccc4c(S(=O)(=O)[O-])cc(S(=O)(=O)[O-])c(N)c4c3O)c(C)c2)ccc1/N=N/c1ccc2c(S(=O)(=O)[O-])cc(S(=O)(=O)[O-])c(N)c2c1O.[Na+].[Na+].[Na+].[Na+] [Evans Blue]
Particles by DLS [1]: did not show particles by DLS | MDH enzyme activity after centrifugation of compound (MDH): enzyme activity was restored after centrifugation

Cc1cc2c(C(C)C)c(O)c(O)c(C=O)c2c(O)c1-c1c(C)cc2c(C(C)C)c(O)c(O)c(C=O)c2c1O [Gossypol]
Colloid radius ±SD ([1]; literature hits): 70 ± 6 nm

O=C1C=C2CC3(O)COc4c(ccc(O)c4O)C3=C2C=C1O (stereo not drawn) [Hematein]
Colloid radius ±SD ([1]; literature hits): 64 ± 1 nm

Cc1cc(O)c2c(=O)c3c(O)cc(O)c4c5c(O)cc(O)c6c(=O)c7c(O)cc(C)c8c1c2c(c34)c(c78)c65 [Hypericin]
Colloid radius ±SD ([1]; literature hits): 143 ± 6 nm

COC(=O)C1=C(C)NC(C)=C(C(=O)OC(C)(C)CN(C)CCC(c2ccccc2)c2ccccc2)C1c1cccc([N+](=O)[O-])c1 (stereo not drawn) [Lercanidipine]
Colloid radius ±SD ([1]; literature hits): 853 ± 147 nm | Increase in DLS scattering intensity (Cnts/sec) on particle formation ([1]; aqueous buffer): 10 fold | Effect of 0.01% Triton X-100 detergent on MDH inhibition/activity [2]: MDH activity is restored | Hill slope of MDH inhibition [2]: 2.9

COC(=O)C1=C(C)NC(C)=C(C(=O)OCCN2CCN(C(c3ccccc3)c3ccccc3)CC2)C1c1cccc([N+](=O)[O-])c1 (stereo not drawn) [Manidipine]
Colloid radius ±SD ([1]; literature hits): 929 ± 75 nm

O=c1c(O)c(-c2cc(O)c(O)c(O)c2)oc2cc(O)cc(O)c12 [Myricetin]
Colloid radius ±SD ([1]; literature hits): 100 ± 4 nm

CC(C)=CC[C@@H](O)C1=CC(=O)c2c(O)ccc(O)c2C1=O [Shikonin]
Colloid radius ±SD ([1]; literature hits): 169 ± 9 nm | Hill slope of MDH inhibition [2]: 1.3–1.4

Brc1c(Br)c(Br)c2[nH]nnc2c1Br [TBB]
Particles by DLS [1]: did not show particles by DLS | MDH enzyme activity after centrifugation of compound (MDH): enzyme activity was restored after centrifugation

C/C(=C\c1ccc(C(=O)O)cc1)c1ccc2c(c1)C(C)(C)CCC2(C)C [TTNPB]
Colloid radius ±SD ([1]; literature hits): 72 ± 3 nm

O=C(O)c1cccc(CN2C(=O)/C(=C(\c3ccccc3)c3ccc(Cl)cc3)c3ccccc32)c1 [YLF-466D]
Colloid radius ±SD ([1]; literature hits): 40 ± 0.4 nm

Hemin
CAC (critical aggregation concentration) ([1]; literature hits): 13 µM | Colloid radius ±SD ([1]; literature hits): 84 ± 0.9 nm | Reduction of 3CL-Pro potency in presence of detergent versus literature value (3CL-Pro): 2.6 fold | Hill slope of MDH inhibition [2]: 1.3–1.4 | AmpC enzyme activity on addition of 0.01% (v/v) Triton X-100 (AmpC β-lactamase; at 25 μM hemin): fully restored enzyme activity | IC50 (AmpC β-lactamase; read-out: AmpC IC50, no detergent): 23 µM

tannic acid
Effect of 0.01% Triton X-100 detergent on MDH inhibition/activity [2]: cannot be reversed by detergent
